Experimental data reported in US20240400986A1, “MEMBRANE BOUND COMPOSITIONS AND METHODS RELATING TO SAME” (FLAGSHIP PIONEERING INNOVATIONS VII, LLC, priority 2021, published 2024).
Like-named read-outs stand apart in the source and are kept apart here.

Assays:
[1] = tested on: neuronal cell line derived from human neuroblastoma
[2] = tested on: neuronal cell line derived from human neuroblastoma; test: Small molecule compound screen of gigasome production in neuronal monocultures; conditions: for fold induction at 0.01 µM / fold induction at 0.1 µM / fold induction at 1 µM / fold induction at 10 µM: Homo sapiens, read-out: Fold Change of Gigasomes Produced vs. DMSO; for fold induction at 0.01 µM / fold induction at 0.1 µM / fold induction at 1 µM / fold induction at 10 µM / downregulation of gigasome production: 24 h; for Number of Gigasomes Produced / Fold Change of Gigasomes Produced vs. DMSO / downregulation of gigasome production: neuronal cells; for Number of Gigasomes Produced / Fold Change of Gigasomes Produced vs. DMSO: 24 hours; for downregulation of gigasome production: doses 10-10,000 nM
Description: To quantify and characterize gigasome production using microscopy, while tracking cell viability/phenotype, a multi-readout system was developed that allowed simultaneous analysis of gigasomes harvested from cell culture media supernatants and respective gigasome producing cell viability. […] For the screening, a total of 99 compounds (TargetMol) were divided in 5 groups. Each group included an untreated condition, a vehicular DMSO control, and a known high-gigasome producing condition to comparatively study gigasome production rates. As a cell death control group, 500 nM Staurosporine was added to induce apoptosis. Cultures were incubated for 24 hours under gigasome inducing conditions at concentrations ranging between 10 nM and 10,000 nM. Before the end of the treatment, live neuronal cultures were imaged. The Zeiss ZEN Blue software was used to distribute imaging fields of view (positions) to create an unbiased imaging sample of a well. 5 images were taken using a Zeiss LSM 900 confocal microscope. […] The BioApps ZEN software package was used to perform cell nucleus segmentation and counting. After 24 hours, gigasomes were harvested from the cell culture media by gently removing from the top of each 96-well ⅔ of the total volume without disturbing the cell layer (containing the settled gigasomes) and by adding to each well the same amount of PBS. The wells were washed twice gently, and the gigasome-containing media/PBS wash was transferred into the well of a 384-well glass bottom plate. Cells remaining in the 96-well plates were assessed for viability using CellTiter-Glo (Promega).
For gigasome analysis in 384-well plates, the Zeiss ZEN Blue software was used to distribute positions to create an unbiased imaging sample of a well. 6 images per well were taken using a Zeiss LSM 900 confocal microscope.
A watershed binary segmentation step was performed to separate grouped objects. For each particle in the mask, characteristic parameters of the particle were calculated and saved.
Particles of interest were identified by thresholding by area and circularity. […] Circularity, defined by the formula 4pi(area/perimeter^2, was set to be between 0.8 and 1, where a value of 1.0 is a perfect circle, and a value of 0 is a line. Gigasomes were identified from the particles of interest by thresholding by mean nuclear signal. The nuclear signal threshold was set using a value equal to one fourth of a threshold value calculated by the Li auto-threshold algorithm applied to the distribution of all particles of interest. Particles of interest with nuclear signal below this value were considered “negative” for nuclear material and were identified as gigasomes. A sampling factor was calculated to extrapolate the total quantity of a type of object (particles, particles of interest, gigasomes) in the well. The sampling factor was the percentage of the well's area that was imaged. […] The normalized quantity or distribution of objects was described as a quantity or distribution of objects per 1000 cells.

[3] = tested on: cardiomyocytic cell line derived from human ventricular heart tissue; test: Small molecule compound screen of gigasome production in cardiomyocytic monocultures; conditions: for downregulation of gigasome production: doses 10-10,000 nM, 24 h;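 as to all read-outs here: gigasomes shed into the culture medium were imaged by confocal microscopy and counted as round particles lacking nuclear signal, extrapolated to the whole well, fold change is relative to DMSO vehicle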
Protocol: For the screening, a total of 100 randomly organized compounds (TargetMol) were divided in 5 groups. Each group included an untreated condition, a vehicular DMSO control, and a known high-gigasome producing condition to comparatively study gigasome production rates. As a cell death control group, 500 nM Staurosporine was added to induce apoptosis. Cultures were incubated for 24 hours under gigasome inducing conditions at concentrations ranging between 10 nM and 10,000 nM. […] The Zeiss ZEN Blue software was used to distribute imaging fields of view (positions) to create an unbiased imaging sample of a well. 5 images were taken using a Zeiss LSM 900 confocal microscope. […] The BioApps ZEN software package was used to perform cell nucleus segmentation and counting. After 24 hours, gigasomes were harvested from the cell culture media by gently removing from the top of each 96-well ⅔ of the total volume without disturbing the cell layer (containing the settled gigasomes) and by adding to each well the same amount of PBS containing 0.5 mM EDTA. The wells were washed twice gently, and the gigasome-containing media/0.5 mM EDTA PBS wash was transferred into the well of a 384-well glass bottom plate. Cells remaining in the 96-well plates were assessed for viability using CellTiter-Glo (Promega).
For gigasome analysis in 384-well plates, the Zeiss ZEN Blue software was used to distribute positions to create an unbiased imaging sample of a well. 6 images per well were taken using a Zeiss LSM 900 confocal microscope. […] A watershed binary segmentation step was performed to separate grouped objects. For each particle in the mask, characteristic parameters of the particle were calculated and saved. […] Particles of interest were identified by thresholding by area and circularity. […] Circularity, defined by the formula 4pi(area/perimeter^2, was set to be between 0.8, where a value of 1.0 is a perfect circle, and a value of 0 is a line. Gigasomes were identified from the particles of interest by thresholding by mean nuclear signal. The nuclear signal threshold was set using a value equal to one quarter of a threshold value calculated by the Li auto-threshold algorithm applied to the distribution of all particles of interest. Particles of interest with nuclear signal below this value were considered “negative” for nuclear material and were identified as gigasomes. A sampling factor was calculated to extrapolate the total quantity of a type of object (particles, particles of interest, gigasomes) in the well. The sampling factor was the percentage of the well's area that was imaged. […] In some experiments, the number of cells in the cell cultures were estimated with a cell counter. […] The normalized quantity or distribution of objects was described as a quantity or distribution of objects per 1000 cells.

[4] = Table 23 (down-regulators), dose 10 nM, cardiomyocytes
[5] = Table 23 (down-regulators), dose 100 nM, cardiomyocytes
[6] = Table 23 (down-regulators), dose 1000 nM, cardiomyocytes
[7] = Table 23 (down-regulators), dose 10000 nM, cardiomyocytes
[8] = neuronal cells, dose 10 nM, 24 hours
[9] = neuronal cells, dose 100 nM, 24 hours
[10] = neuronal cells, dose 1000 nM, 24 hours
[11] = Table 22, dose 10 nM, cardiomyocytes, 24 hours
[12] = Table 22, dose 100 nM, cardiomyocytes, 24 hours
[13] = neuronal cells, dose 10000 nM, 24 hours
[14] = Table 22, dose 1000 nM, cardiomyocytes, 24 hours
[15] = Table 22, dose 10000 nM, cardiomyocytes, 24 hours

Cc1ncc(-c2ccnc(Nc3ccc(S(C)(=O)=O)cc3)n2)n1C(C)C [AZD-5438]
Viability ([1]; human, 24 h, 10 nM): 100%
Viability ([1]; human, 24 h, 100 nM): 100%
Viability ([1]; human, 24 h, 1000 nM): 100%
fold induction at 0.01 µM [2]: 1.5 to 1.75
fold induction at 0.1 µM [2]: 1.25 to 1.5
fold induction at 1 µM [2]: 1 to 1.25
Number of Gigasomes Produced ([2]; dose 10 nM): 45-55
Number of Gigasomes Produced ([2]; dose 100 nM): 35-45
Number of Gigasomes Produced ([2]; dose 1000 nM): 35-45

COC(=O)C1=C(C)NC(C)=C([N+](=O)[O-])C1c1ccccc1C(F)(F)F (stereo not shown) [Bay K 8644]
Fold Change of Gigasomes Produced vs. DMSO ([2]; dose 10 nM): 1.25-1.5
Number of Gigasomes Produced ([2]; dose 10 nM): 35-45
Fold Change of Gigasomes Produced vs. DMSO ([2]; dose 100 nM): 1.25-1.5
Number of Gigasomes Produced ([2]; dose 100 nM): 35-45
Fold Change of Gigasomes Produced vs. DMSO ([2]; dose 1000 nM): 1.25-1.5
Number of Gigasomes Produced ([2]; dose 1000 nM): 35-45
Fold Change of Gigasomes Produced vs. DMSO [3, 4]: 0.75-1.0
Number of Gigasomes Produced [3, 4]: >150
Fold Change of Gigasomes Produced vs. DMSO [3, 5]: 0.5-0.75
Number of Gigasomes Produced [3, 5]: 120-135
Fold Change of Gigasomes Produced vs. DMSO [3, 6]: 0.75-1.0
Number of Gigasomes Produced [3, 6]: 105-120
Fold Change of Gigasomes Produced vs. DMSO [3, 7]: 0.25-0.5
Number of Gigasomes Produced [3, 7]: 75-90

C=C(C)[C@@H]1CC[C@]2(C(=O)O)CC[C@]3(C)[C@H](CC[C@@H]4[C@@]5(C)CC[C@H](O)C(C)(C)[C@@H]5CC[C@]43C)[C@@H]12 [Betulinic acid]
Viability ([1]; human, 24 h, 10 nM): 100%
Viability ([1]; human, 24 h, 100 nM): 100%
Viability ([1]; human, 24 h, 10000 nM): 100%
fold induction at 0.01 µM [2]: 0.5 to 0.75
fold induction at 0.1 µM [2]: 1.25 to 1.5
fold induction at 10 µM [2]: 1.5 to 1.75
Number of Gigasomes Produced ([2]; dose 10 nM): <35
Number of Gigasomes Produced ([2]; dose 100 nM): 55-65
Number of Gigasomes Produced ([2]; dose 10000 nM): 55-65

O=C1CSC(c2ccccc2Cl)c2cc(Cl)ccc2N1 (stereo not shown) [CGP37157, reference compound]
Fold Change of Gigasomes Produced vs. DMSO [3, 4]: 0.75-1.0
Number of Gigasomes Produced [3, 4]: 120-135
Fold Change of Gigasomes Produced vs. DMSO [3, 5]: 0.75-1.0
Number of Gigasomes Produced [3, 5]: 105-120
Fold Change of Gigasomes Produced vs. DMSO [3, 6]: 0.25-0.5
Number of Gigasomes Produced [3, 6]: 50-75
Fold Change of Gigasomes Produced vs. DMSO [3, 7]: 0.25-0.5
Number of Gigasomes Produced [3, 7]: 50-75
downregulation of gigasome production ([3]; cardiomyocytes): dose-dependent downregulation

O=C(c1ccc2nccnc2c1)N1CCCCC1 [CX516]
Viability [1, 8]: 100%
Viability [1, 9]: 100%
Viability [1, 10]: 100%
fold induction at 0.01 µM [2]: 0.75 to 1
fold induction at 0.1 µM [2]: 1.25 to 1.5
fold induction at 1 µM [2]: 1 to 1.25
Number of Gigasomes Produced ([2]; dose 10 nM): <35
Number of Gigasomes Produced ([2]; dose 100 nM): 45-55
Number of Gigasomes Produced ([2]; dose 1000 nM): 35-45

C[C@H](NC(=O)Cc1cc(F)cc(F)c1)C(=O)N[C@H](C(=O)OC(C)(C)C)c1ccccc1 [DAPT]
Fold Change of Gigasomes Produced vs. DMSO [3, 11]: 1.0-1.25
Number of Gigasomes Produced [3, 11]: 200-225
Fold Change of Gigasomes Produced vs. DMSO [3, 12]: 1.25-1.5
Number of Gigasomes Produced [3, 12]: 250-275

CC1=NS(=O)(=O)c2cc(Cl)ccc2N1 [Diazoxide]
Viability ([1]; human, 24 h, 100 nM): 100%
Viability ([1]; human, 24 h, 1000 nM): 100%
Viability ([1]; human, 24 h, 10000 nM): 100%
fold induction at 0.1 µM [2]: 1.5 to 1.75
fold induction at 1 µM [2]: 1.25 to 1.5
fold induction at 10 µM [2]: 1 to 1.25
Number of Gigasomes Produced ([2]; dose 100 nM): 45-55
Number of Gigasomes Produced ([2]; dose 1000 nM): 35-45
Number of Gigasomes Produced ([2]; dose 10000 nM): 35-45

COC(=O)c1ccccc1NC(=O)c1ccc(F)cc1 [EXO1, reference compound]
Viability [1, 8]: 100%
Viability [1, 9]: 100%
Viability [1, 10]: 100%
Viability [1, 13]: 100%
Fold Change of Gigasomes Produced vs. DMSO ([2]; dose 10 nM): 0.75-1.0
Number of Gigasomes Produced ([2]; dose 10 nM): 35-40
Fold Change of Gigasomes Produced vs. DMSO ([2]; dose 100 nM): 0.5-0.75
Number of Gigasomes Produced ([2]; dose 100 nM): 20-25
Fold Change of Gigasomes Produced vs. DMSO ([2]; dose 1000 nM): 0.25-0.5
Number of Gigasomes Produced ([2]; dose 1000 nM): 10-15
Fold Change of Gigasomes Produced vs. DMSO ([2]; dose 10000 nM): 0.25-0.5
Number of Gigasomes Produced ([2]; dose 10000 nM): 10-15
downregulation of gigasome production [2]: dose-dependent downregulation

CCCn1cnc2c(NCc3ccc(C)s3)nc(N[C@H](CC)CO)nc21 [GV-58, reference compound]
Viability [1, 8]: 100%
Viability [1, 9]: 100%
Viability [1, 10]: 100%
Viability [1, 13]: >75%
Fold Change of Gigasomes Produced vs. DMSO ([2]; dose 10 nM): 0.75-1.0
Number of Gigasomes Produced ([2]; dose 10 nM): 25-30
Fold Change of Gigasomes Produced vs. DMSO ([2]; dose 100 nM): 0.75-1.0
Number of Gigasomes Produced ([2]; dose 100 nM): 20-25
Fold Change of Gigasomes Produced vs. DMSO ([2]; dose 1000 nM): 0.75-1.0
Number of Gigasomes Produced ([2]; dose 1000 nM): 20-25
Fold Change of Gigasomes Produced vs. DMSO ([2]; dose 10000 nM): 0.25-0.5
Number of Gigasomes Produced ([2]; dose 10000 nM): 10-15
downregulation of gigasome production [2]: dose-dependent downregulation

O=C(/C=C/c1ccc(/C=C/C(=O)Nc2ccc(C3=NCCN3)cc2)cc1)Nc1ccc(C2=NCCN2)cc1 [GW4869, reference compound]
Number of Gigasomes Produced ([2]; dose 10 nM): 30-35
Fold Change of Gigasomes Produced vs. DMSO ([2]; dose 100 nM): 0.75-1.0
Number of Gigasomes Produced ([2]; dose 100 nM): 35-40
Fold Change of Gigasomes Produced vs. DMSO ([2]; dose 1000 nM): 0.25-0.5
Number of Gigasomes Produced ([2]; dose 1000 nM): 15-20
Fold Change of Gigasomes Produced vs. DMSO ([2]; dose 10000 nM): 0.25-0.5
Number of Gigasomes Produced ([2]; dose 10000 nM): 5-10
downregulation of gigasome production [2]: dose-dependent downregulation

COc1ccc(S(=O)(=O)N(CCO)c2ccccc2CN(C)C/C=C/c2ccc(Cl)cc2)cc1 [KN-93, reference compound]
Fold Change of Gigasomes Produced vs. DMSO [3, 11]: 1.25-1.5
Number of Gigasomes Produced [3, 11]: 225-250
Fold Change of Gigasomes Produced vs. DMSO [3, 14]: 1.25-1.5
Number of Gigasomes Produced [3, 14]: 250-275
Fold Change of Gigasomes Produced vs. DMSO [3, 15]: 1.5-1.75
Number of Gigasomes Produced [3, 15]: 250-275

CCCCc1ccc(NC(C)=O)c(C)c1 [SMIP004]
Fold Change of Gigasomes Produced vs. DMSO ([2]; dose 10 nM): >1.25
Number of Gigasomes Produced ([2]; dose 10 nM): >40
Fold Change of Gigasomes Produced vs. DMSO ([2]; dose 100 nM): 0.75-1.0
Number of Gigasomes Produced ([2]; dose 100 nM): 35-40
Fold Change of Gigasomes Produced vs. DMSO ([2]; dose 1000 nM): 0.75-1.0
Number of Gigasomes Produced ([2]; dose 1000 nM): 30-35
Fold Change of Gigasomes Produced vs. DMSO ([2]; dose 10000 nM): 0.75-1.0
Number of Gigasomes Produced ([2]; dose 10000 nM): 30-35
Fold Change of Gigasomes Produced vs. DMSO [3, 14]: 1.0-1.25
Number of Gigasomes Produced [3, 14]: 150-175
Fold Change of Gigasomes Produced vs. DMSO [3, 15]: 1.25-1.5
Number of Gigasomes Produced [3, 15]: 175-200

O=C(Nc1ccccc1-c1cn2c(CN3CCNCC3)csc2n1)c1cnc2ccccc2n1 [SRT 1720]
Fold Change of Gigasomes Produced vs. DMSO [3, 14]: 1.0-1.25
Number of Gigasomes Produced [3, 14]: 150-175

NC(=O)C1CCCc2c1[nH]c1ccc(Cl)cc21 (stereo not shown) [Selisistat]
Fold Change of Gigasomes Produced vs. DMSO [3]: 1.25-1.5
Number of Gigasomes Produced [3, 11]: 150-175

CCC(C)(C)C(=O)O[C@H]1C[C@@H](C)C=C2C=C[C@H](C)[C@H](CC[C@@H]3C[C@@H](O)CC(=O)O3)[C@H]21 [Simvastatin]
Number of Gigasomes Produced ([2]; dose 100 nM): <35
Number of Gigasomes Produced ([2]; dose 1000 nM): 35-45
Number of Gigasomes Produced ([2]; dose 10000 nM): 45-55

Fc1ccc(CNc2ncnc3ccc(F)cc23)cc1 [Spautin-1]
Fold Change of Gigasomes Produced vs. DMSO [3, 4]: 0.75-1.0
Number of Gigasomes Produced [3, 4]: 105-120
Fold Change of Gigasomes Produced vs. DMSO [3, 5]: 0.75-1.0
Number of Gigasomes Produced [3, 5]: 120-135
Fold Change of Gigasomes Produced vs. DMSO [3, 6]: 0.5-0.75
Number of Gigasomes Produced [3, 6]: 90-105
Fold Change of Gigasomes Produced vs. DMSO [3, 7]: 0.5-0.75
Number of Gigasomes Produced [3, 7]: 75-90

O=C(Oc1cccc(F)c1OC(=O)c1cccc(O)c1)c1cccc(O)c1 [WZB117, reference compound]
Fold Change of Gigasomes Produced vs. DMSO [3, 4]: 1.0-1.25
Number of Gigasomes Produced [3, 4]: 120-135
Fold Change of Gigasomes Produced vs. DMSO [3, 5]: 0.75-1.0
Number of Gigasomes Produced [3, 5]: 105-120
Fold Change of Gigasomes Produced vs. DMSO [3, 6]: 0.75-1.0
Number of Gigasomes Produced [3, 6]: 105-120
Fold Change of Gigasomes Produced vs. DMSO [3, 7]: 0.25-0.5
Number of Gigasomes Produced [3, 7]: 35-50
downregulation of gigasome production ([3]; cardiomyocytes): dose-dependent downregulation
